Tests used:
[1] = biological target: Serine/threonine-protein kinase PLK1 (Homo sapiens) (UniProt P53350); test: Inhibition of PLK1 relative to control; conditions: concentration not given here
[2] = biological target: T1, Aryl hydrocarbon receptor (Mus musculus, UniProt P30561); test: Agonist activity at Ah receptor in genetically engineered mouse cells expressing firefly luciferase gene by CALUX transactivational assay; type: functional
T1 sequence (P30561 whole entry): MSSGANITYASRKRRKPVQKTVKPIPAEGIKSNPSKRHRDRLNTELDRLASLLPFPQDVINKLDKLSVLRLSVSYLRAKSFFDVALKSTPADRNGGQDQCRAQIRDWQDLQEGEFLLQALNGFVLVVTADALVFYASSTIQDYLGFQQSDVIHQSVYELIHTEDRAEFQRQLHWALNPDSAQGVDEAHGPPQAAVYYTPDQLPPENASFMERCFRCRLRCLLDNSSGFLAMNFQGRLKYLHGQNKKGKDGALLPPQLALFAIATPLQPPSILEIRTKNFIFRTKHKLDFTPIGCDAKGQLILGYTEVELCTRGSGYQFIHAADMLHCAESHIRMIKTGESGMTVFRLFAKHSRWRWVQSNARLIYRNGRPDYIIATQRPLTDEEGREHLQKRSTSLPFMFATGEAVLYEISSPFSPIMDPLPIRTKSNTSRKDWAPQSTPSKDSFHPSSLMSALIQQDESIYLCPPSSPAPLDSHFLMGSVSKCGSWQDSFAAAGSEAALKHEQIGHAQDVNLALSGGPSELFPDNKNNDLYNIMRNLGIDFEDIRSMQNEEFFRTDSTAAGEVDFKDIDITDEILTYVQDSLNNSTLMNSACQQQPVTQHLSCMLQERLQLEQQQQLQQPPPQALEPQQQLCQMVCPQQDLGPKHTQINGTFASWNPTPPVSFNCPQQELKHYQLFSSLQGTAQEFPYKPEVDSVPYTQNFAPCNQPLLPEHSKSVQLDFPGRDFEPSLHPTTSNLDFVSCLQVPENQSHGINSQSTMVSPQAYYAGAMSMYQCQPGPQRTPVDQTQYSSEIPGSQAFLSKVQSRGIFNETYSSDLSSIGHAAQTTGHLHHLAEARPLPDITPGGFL

[3] = biological target: Serine/threonine-protein kinase Chk2 (Homo sapiens) (UniProt O96017); test: Inhibition of CHEK2 relative to control; conditions: concentration not given here
Serine/threonine-protein kinase Chk2 (Homo sapiens), sequence (O96017 whole entry): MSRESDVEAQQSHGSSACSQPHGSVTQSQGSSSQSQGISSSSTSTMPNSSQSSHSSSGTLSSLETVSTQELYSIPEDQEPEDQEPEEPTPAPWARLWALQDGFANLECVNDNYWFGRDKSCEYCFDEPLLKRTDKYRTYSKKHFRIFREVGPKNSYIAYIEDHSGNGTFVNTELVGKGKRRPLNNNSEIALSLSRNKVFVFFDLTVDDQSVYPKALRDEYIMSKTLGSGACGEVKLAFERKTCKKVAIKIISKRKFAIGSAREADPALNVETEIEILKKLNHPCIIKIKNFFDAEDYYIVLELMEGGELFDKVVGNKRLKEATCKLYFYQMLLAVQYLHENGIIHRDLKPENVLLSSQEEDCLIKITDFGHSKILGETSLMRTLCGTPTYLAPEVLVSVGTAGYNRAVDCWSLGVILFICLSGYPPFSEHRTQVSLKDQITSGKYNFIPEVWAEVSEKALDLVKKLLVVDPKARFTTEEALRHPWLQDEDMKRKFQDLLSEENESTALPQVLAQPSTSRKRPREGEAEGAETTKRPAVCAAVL

[4] = biological target: Tyrosine-protein kinase BTK (Homo sapiens, UniProt Q06187); test: Inhibition of BTK autophosphorylation at PY223 in human Ramos B cells after 20 mins by Western blot analysis; type: cell-based
Tyrosine-protein kinase BTK, sequence (Q06187 whole entry): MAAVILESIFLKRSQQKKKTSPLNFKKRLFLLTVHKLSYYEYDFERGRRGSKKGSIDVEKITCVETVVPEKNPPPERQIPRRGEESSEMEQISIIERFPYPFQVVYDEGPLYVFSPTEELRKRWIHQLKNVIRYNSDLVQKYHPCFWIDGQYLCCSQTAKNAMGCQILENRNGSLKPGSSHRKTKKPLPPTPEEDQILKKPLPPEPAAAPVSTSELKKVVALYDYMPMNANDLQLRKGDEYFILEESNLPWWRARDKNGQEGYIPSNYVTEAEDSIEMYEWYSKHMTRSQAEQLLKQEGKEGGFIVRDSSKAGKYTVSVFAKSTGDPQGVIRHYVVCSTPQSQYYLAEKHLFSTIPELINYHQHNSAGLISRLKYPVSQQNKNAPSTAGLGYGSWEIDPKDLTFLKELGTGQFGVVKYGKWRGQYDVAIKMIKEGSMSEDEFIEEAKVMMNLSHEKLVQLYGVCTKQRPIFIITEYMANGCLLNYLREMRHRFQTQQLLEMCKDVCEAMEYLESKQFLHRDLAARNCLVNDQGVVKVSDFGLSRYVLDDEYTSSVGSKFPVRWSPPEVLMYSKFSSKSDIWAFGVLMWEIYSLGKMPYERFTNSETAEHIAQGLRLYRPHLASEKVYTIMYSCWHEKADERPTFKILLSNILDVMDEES

[5] = biological target: Tyrosine-protein kinase Mer (Homo sapiens) (UniProt Q12866); test: Inhibition of MERTK relative to control; conditions: concentration not given here
Tyrosine-protein kinase Mer (Homo sapiens), sequence (Q12866 whole entry): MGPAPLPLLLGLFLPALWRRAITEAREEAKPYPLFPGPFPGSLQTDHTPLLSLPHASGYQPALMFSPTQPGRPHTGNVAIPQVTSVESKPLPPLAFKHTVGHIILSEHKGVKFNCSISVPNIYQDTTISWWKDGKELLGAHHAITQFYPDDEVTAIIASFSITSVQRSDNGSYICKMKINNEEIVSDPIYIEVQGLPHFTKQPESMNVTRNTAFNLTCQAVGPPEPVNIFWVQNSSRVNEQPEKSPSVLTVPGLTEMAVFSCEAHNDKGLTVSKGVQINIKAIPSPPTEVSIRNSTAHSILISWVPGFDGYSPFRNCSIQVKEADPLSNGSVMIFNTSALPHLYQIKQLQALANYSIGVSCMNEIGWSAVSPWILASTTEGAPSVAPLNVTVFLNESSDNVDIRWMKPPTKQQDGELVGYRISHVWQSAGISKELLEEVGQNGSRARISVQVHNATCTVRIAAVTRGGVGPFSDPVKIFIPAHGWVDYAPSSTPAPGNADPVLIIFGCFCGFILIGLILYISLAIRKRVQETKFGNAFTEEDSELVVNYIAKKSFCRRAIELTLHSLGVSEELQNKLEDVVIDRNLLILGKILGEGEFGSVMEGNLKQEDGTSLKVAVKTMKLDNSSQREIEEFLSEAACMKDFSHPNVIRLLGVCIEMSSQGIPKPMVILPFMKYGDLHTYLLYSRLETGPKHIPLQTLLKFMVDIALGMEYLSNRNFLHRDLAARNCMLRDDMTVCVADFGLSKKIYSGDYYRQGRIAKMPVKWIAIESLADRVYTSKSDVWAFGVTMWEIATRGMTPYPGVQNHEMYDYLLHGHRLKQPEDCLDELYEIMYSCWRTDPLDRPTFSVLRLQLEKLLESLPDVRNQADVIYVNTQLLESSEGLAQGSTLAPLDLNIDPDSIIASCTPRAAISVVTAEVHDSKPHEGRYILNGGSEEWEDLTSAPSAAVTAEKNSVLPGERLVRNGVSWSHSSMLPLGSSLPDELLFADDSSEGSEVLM

[6] = Half life in mouse at 2 mg/kg, iv; type: ADME, organism-based; set-up: dose 2 mg/kg, route intravenous; conditions: in vivo
[7] = biological target: Focal adhesion kinase 1 (Homo sapiens) (UniProt Q05397); test: Inhibition of PTK2 relative to control; conditions: concentration not given here
Focal adhesion kinase 1 (Homo sapiens), sequence (Q05397 2-1052 limits assumed): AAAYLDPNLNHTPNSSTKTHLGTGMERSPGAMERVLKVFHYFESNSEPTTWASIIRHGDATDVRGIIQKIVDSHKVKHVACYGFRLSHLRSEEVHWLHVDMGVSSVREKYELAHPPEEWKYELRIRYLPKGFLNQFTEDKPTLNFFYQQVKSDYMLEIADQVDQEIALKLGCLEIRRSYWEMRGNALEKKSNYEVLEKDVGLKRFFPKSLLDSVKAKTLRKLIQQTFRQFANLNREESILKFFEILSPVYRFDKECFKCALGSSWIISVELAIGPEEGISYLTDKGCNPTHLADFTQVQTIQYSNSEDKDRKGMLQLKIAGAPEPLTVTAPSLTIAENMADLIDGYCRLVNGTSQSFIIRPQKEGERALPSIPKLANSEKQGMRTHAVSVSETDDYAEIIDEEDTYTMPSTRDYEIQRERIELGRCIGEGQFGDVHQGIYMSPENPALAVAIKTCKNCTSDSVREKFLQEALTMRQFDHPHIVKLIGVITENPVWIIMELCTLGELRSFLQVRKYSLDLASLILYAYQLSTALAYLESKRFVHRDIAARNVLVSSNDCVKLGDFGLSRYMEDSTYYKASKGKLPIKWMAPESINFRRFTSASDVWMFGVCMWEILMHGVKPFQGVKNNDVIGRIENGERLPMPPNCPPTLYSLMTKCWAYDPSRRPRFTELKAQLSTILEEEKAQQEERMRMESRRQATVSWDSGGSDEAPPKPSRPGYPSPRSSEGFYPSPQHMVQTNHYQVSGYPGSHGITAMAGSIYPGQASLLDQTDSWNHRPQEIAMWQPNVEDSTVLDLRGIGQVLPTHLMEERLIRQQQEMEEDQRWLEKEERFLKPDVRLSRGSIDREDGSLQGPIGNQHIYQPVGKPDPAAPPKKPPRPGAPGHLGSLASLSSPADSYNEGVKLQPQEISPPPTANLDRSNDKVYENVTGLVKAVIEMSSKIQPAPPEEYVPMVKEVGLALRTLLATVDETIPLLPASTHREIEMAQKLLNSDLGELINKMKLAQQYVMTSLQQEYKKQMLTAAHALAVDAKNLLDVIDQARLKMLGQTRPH

Serine/threonine-protein kinase PLK1 (Homo sapiens), sequence (P53350 whole entry): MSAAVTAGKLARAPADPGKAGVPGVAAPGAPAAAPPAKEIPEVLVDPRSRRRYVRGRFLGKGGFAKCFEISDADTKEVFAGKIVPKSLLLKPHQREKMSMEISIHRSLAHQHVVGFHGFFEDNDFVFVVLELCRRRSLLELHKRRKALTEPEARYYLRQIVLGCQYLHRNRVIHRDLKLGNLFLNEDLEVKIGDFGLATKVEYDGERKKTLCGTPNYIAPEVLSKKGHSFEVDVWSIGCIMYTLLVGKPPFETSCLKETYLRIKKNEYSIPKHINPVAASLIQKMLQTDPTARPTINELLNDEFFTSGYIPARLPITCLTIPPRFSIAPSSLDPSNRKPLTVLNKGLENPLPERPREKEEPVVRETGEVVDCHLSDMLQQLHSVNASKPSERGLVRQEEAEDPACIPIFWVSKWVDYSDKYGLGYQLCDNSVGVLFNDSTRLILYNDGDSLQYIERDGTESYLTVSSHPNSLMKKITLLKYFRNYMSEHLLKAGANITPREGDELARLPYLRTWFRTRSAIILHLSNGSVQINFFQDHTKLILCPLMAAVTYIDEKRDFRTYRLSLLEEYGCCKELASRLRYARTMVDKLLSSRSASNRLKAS

inhibition [1]: 4%
EC50 [2]: > 10000 nM
inhibition [3]: 19%
IC50 [4]: 48 nM
inhibition [5]: 4%
half-life [6]: 1.5 h
inhibition [7]: -2%
Compound: Cc1ccccc1Nc1nc2cc(F)c(N(C)C(=O)/C=C/CN(C)C)cc2n2cncc12

Reference: ChEMBL document CHEMBL1914368, “Imidazo[1,5-a]quinoxalines as irreversible BTK inhibitors for the treatment of rheumatoid arthritis” (Bioorg Med Chem Lett, 2011)
